Laboratory results published in patent US20200040348A1, “CONTROL OF VIRAL AND BACTERIAL INFECTION BY ANTIMICROBIAL PEPTIDES RETROCYCLIN AND/OR PROTEGRIN EXPRESSED IN CHLOROPLASTS” (THE TRUSTEES OF THE UNIVERSITY OF PENNSYLVANIA, priority 2010, published 2020).
“Also recorded” adds a separate entry of the source. Where no end group is shown, it is not given here.

What was measured:
[1] = test system: tobacco mosaic virus (TMV); type: in vivo; conditions: transplastomic tobacco plants, within 20 days after inoculation
Erwinia carotovora [2] = assay: In planta assay for resistance to Erwinia soft rot (syringe or sandpaper inoculation of tobacco leaves); type: in vivo; conditions: mature transplastomic tobacco leaves; for necrosis at the site of inoculation: sand paper method, up to 10^8 E. carotovora cells; for necrosis surrounding the point of inoculation: syringe method, 10^8, 10^6, 10^4 and 10^2 E. carotovora cells, peptide expressed in chloroplasts
Erwinia carotovora [3] = assay: Erwinia carotovora inoculation and bacterial count in tobacco leaves; type: in vivo; conditions: plants inoculated with 1.0×10^5 cfu/ml E. carotovora
Procedure: The leaves of untransformed and transplastomic tobacco plants were inoculated with 20 μl of bacterial suspension (1.0×10^5 cfu/ml) through a syringe. Each leaf disc (0.8 cm diameter) was punched off from the inoculated area of an individual plant after 0, 1 or 3 days of incubation. The bacterial population inside the leaf was calculated as follows. Leaf tissue was ground in 100 μl sterilized water in a microcentrifuge tube. The suspension was serially diluted with sterilized water and was then plated on nutrient broth agar plates (Difco). Colonies were counted after one day of incubation at 25° C.

[4] = test system: gram-positive or gram-negative bacteria; conditions: cited from earlier work
[5] = test system: T-tropic and M-tropic strains of HIV-1; conditions: human CD4+ lymphocytes, in vitro; cited from earlier work
[6] = test system: vegetative B. anthracis cells; conditions: cited from earlier work
HIV-1 = conditions: organ-like construct of human cervicovaginal tissue; cited from earlier work

Substance | symptoms of TMV infection [1] | necrosis at the site of inoculation (Erwinia carotovora [2]) | necrosis surrounding the point of inoculation (Erwinia carotovora [2]) | symptoms of necrosis (Erwinia carotovora [3]) | minimum inhibitory concentrations [4] [µg/mL] | concentration that inhibits proviral DNA formation and protects from infection [5] [µg/mL] | minimum effective concentration [6] [µg/mL] | amount that prevents HIV-1 infection (HIV-1) [µg]
Protegrin-1 (RGGRLCYCRRRFCVCVGR; not fully specified (bridges); ends and bridges not checked; also: two disulfide bonds, pairing not given here) [PG1] | typical mosaic, necrosis and wrinkle symptoms; also recorded: not effective | mild discoloration | no areas of necrosis | no apparent symptoms of necrosis | 0.12 to 2 |  |  | 
Retrocyclin |  |  |  |  |  | 10 to 20 |  | 
Retrocyclin-1 |  |  |  |  |  |  | < 1 | 
Retrocyclin-101 [RC101] | didn't show obvious symptoms of TMV infection; also recorded: resistant to TMV infection | no necrosis | no areas of necrosis | no apparent symptoms of necrosis |  |  |  | 2
